Data from BindingDB's records for doi:10.1021/jm950874+ (National Institutes of Health, 1996).

target: T1, Dimer of Gag-Pol polyprotein [489-587] (Human immunodeficiency virus 1, UniProt P12497); test: Protease Inhibition Assay; conditions: pH 6.5; 37 °C
T1 construct: 489-587
Protocol: Sensitivity of HIV-1 protease activity to protease inhibitors was determined by a peptide substrate cleavage assay. Protease products were analyzed on a reverse-phase high-pressure liquid chromatograph.

Row | SMILES | IC50 [µM]
1 | CCCCCCc1cc2c(cc1O)OC(=O)C(C(c1ccccc1)c1c(O)c3cc(CCCCCC)c(O)cc3oc1=O)C2O (stereo not drawn) | 0.32
2 | O=c1oc2cccc(O)c2c(O)c1Cc1ccccc1 | 6
3 | O=C1C(=O)c2ccccc2C(=O)C1=C(c1ccc(C(C2C(=O)C(=O)c3ccccc3C2=O)C2C(=O)C(=O)c3ccccc3C2=O)cc1)c1c(O)c(O)c2ccccc2c1O (stereo not drawn) [2-({4-[bis(3-hydroxy-1,4-dioxo-1,4-dihydronaphthalen-2-yl)methyl]phenyl}(3-hydroxy-1,4-dioxo-1,4-dihydronaphthalen-2-yl)methyl)-3-hydroxy-1,4-dihydronaphthalene-1,4-dione] | 0.75
4 | O=C1C(=O)c2ccccc2C(=O)C1=C(c1ccc(Cl)cc1Cl)c1c(O)c(O)c2ccccc2c1O [2-[(2,4-dichlorophenyl)(3-hydroxy-1,4-dioxo-1,4-dihydronaphthalen-2-yl)methyl]-3-hydroxy-1,4-dihydronaphthalene-1,4-dione] | 24
5 | CC(=O)NC(Cc1ccsc1)(C(=O)O)C(=O)O [2-acetamido-2-(thiophen-3-ylmethyl)propanedioic acid] | 23
6 | CCCC(=O)c1c(O)c(C)c(O)c(CC2C(=O)C(C(=O)CCC)C(=O)C(C)(C)C2=O)c1O (stereo not drawn) [2-butanoyl-6-[(3-butanoyl-2,4,6-trihydroxy-5-methylphenyl)methyl]-3,5-dihydroxy-4,4-dimethylcyclohexa-2,5-dien-1-one] | 26
7 | O=c1oc2ccccc2c(O)c1C(c1ccc(C(c2c(O)c3ccccc3oc2=O)c2c(O)c3ccccc3oc2=O)cc1)c1c(O)c2ccccc2oc1=O [3-({4-[bis(4-hydroxy-2-oxo-2H-chromen-3-yl)methyl]phenyl}(4-hydroxy-2-oxo-2H-chromen-3-yl)methyl)-4-hydroxy-2H-chromen-2-one] | 1.7
8 | O=C1C2=C(C(=O)c3ccccc31)C(O)(S(=O)(=O)O)C(O)(S(=O)(=O)O)C1N=CC=CC21 (stereo not drawn) [11,12-dihydroxy-5,10-dioxo-4a,5,10,11,12,12a-hexahydro-1-azatetraphene-11,12-disulfonic acid] | 2
9 | CC1(C)CC[C@]2(C(=O)O)CC[C@@]3(C)C(=CC[C@H]4[C@@]5(C)C[C@H](O)[C@H](O)[C@](C)(C(=O)O)[C@H]5CC[C@]43C)[C@@H]2C1 [(2S,3R,4R,4aS,6aR,6bR,8aS,12aS,14aS,14bR)-2,3-dihydroxy-4,6a,6b,11,11,14b-hexamethyl-1,2,3,4,4a,5,6,6a,6b,7,8,8a,9,10,11,12,12a,14,14a,14b-icosahydropicene-4,8a-dicarboxylic acid] | 35
10 | C[C@]12CCC(=O)C=C1CC[C@@H]1[C@H]2[C@@H](O)C[C@@]2(C)[C@@H]1CC[C@]2(O)C(=O)COC(=O)CCC(=O)O [Cancer Chemotherapy National Service Center (CCNSC) compound 7576] | 27
11 | CC(C)CC(NC(=O)OCc1ccccc1)(C(=O)O)C(=O)O [Cancer Chemotherapy National Service Center (CCNSC) compound 20143] | 17
12 | O=C1Oc2ccccc2C(O)C1Sc1c(O)c2ccccc2oc1=O (stereo not drawn) [Cancer Chemotherapy National Service Center (CCNSC) compound 41234] | 21
13 | CC(=O)OC1CCC2(C)C(C)C(C)CCC2(O)C1O (stereo not drawn) [Cancer Chemotherapy National Service Center (CCNSC) compound 112500] | 16
14 | O=c1oc2c(-c3ccccc3)cccc2c(O)c1-c1ccccc1 [Cancer Chemotherapy National Service Center (CCNSC) compound 251150] | 13
15 | O=c1oc2ccccc2c(O)c1-c1ccccc1 [Cancer Chemotherapy National Service Center (CCNSC) compound 251152] | 42
16 | O=c1oc2ccccc2c(O)c1C(c1ccc2c(c1)OCO2)c1c(O)c2ccccc2oc1=O [Cancer Chemotherapy National Service Center (CCNSC) compound 373937] | 30
17 | CC(C)c1cccc(C(C)C)c1NC(=O)C(=O)CC(=O)CC(c1ccccc1)c1c(O)c2ccccc2oc1=O (stereo not drawn) [N-[2,6-bis(propan-2-yl)phenyl]-6-(4-hydroxy-2-oxo-2H-chromen-3-yl)-2,4-dioxo-6-phenylhexanamide] | 31
18 | O=C(Oc1ccccc1)N(CCO)C(c1ccccc1)C(O)c1ccccc1 (stereo not drawn) [phenyl N-(2-hydroxy-1,2-diphenylethyl)-N-(2-hydroxyethyl)carbamate] | 32
